Drawing on ChEMBL document CHEMBL1212885, “Identification and characterization of acidic mammalian chitinase inhibitors” (J Med Chem, 2010), this text covers IC50, Activity and Kd for five molecules.

Molecules are shown by their SMILES.

Experiment [1] is described as follows: Inhibition of chitotriosidase after 60 mins.
Experiment [2] deals with Mus musculus. Put plainly: Antiallergic activity in C57BL/6 mouse assessed as reduction of HDM/CRA-induced chitinase activity in bronchoalveolar lavage fluid at 50 mg/kg, po administered twice daily. Type of experiment: functional, C57BL6, Lung. More on the design: scale not given: the % may be the effect or the level left.
The target in experiment [3] is T1, Acidic mammalian chitinase (Homo sapiens, UniProt Q9BZP6). Description: Inhibition of acidic mammalian chitinase after 60 mins.
In experiment [4] the target is T1, Acidic mammalian chitinase. Put plainly: Binding affinity to biotinylated-acidic mammalian chitinase.
Experiment [5] relates to Mus musculus. Put plainly: Antiallergic activity in C57BL/6 mouse assessed as reduction of HDM/CRA-induced chitinase activity in bronchoalveolar lavage fluid at 10 mg/kg, ip administered once daily. Type of experiment: functional, C57BL6, Lung. More on the design: scale not given: the % may be the effect or the level left. To be noted: route intraperitoneal.

T1 sequence (Q9BZP6 whole entry): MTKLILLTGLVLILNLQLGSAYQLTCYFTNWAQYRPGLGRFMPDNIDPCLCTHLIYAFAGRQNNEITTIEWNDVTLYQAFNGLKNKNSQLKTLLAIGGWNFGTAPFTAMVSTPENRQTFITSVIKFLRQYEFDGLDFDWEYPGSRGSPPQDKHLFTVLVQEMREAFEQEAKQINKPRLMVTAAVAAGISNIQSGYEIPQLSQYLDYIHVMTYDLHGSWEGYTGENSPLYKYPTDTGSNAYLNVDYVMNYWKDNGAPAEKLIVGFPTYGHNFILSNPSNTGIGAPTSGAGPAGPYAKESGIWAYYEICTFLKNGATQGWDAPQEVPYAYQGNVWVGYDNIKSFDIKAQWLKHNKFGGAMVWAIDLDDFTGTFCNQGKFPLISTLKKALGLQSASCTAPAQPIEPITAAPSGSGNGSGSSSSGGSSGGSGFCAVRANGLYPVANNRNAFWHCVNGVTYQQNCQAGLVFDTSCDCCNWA

For `Nc1n[nH]c(N2CCN(CCOc3ccc(Br)cc3)CC2)n1`, the IC50 in experiment [1] came to 4.23 µM. In the experiment with Mus musculus [2], the Activity turned out to be 43%.
For `Cc1[nH]c2ccccc2c1CN1CCN(c2ccccn2)CC1`, in experiment [1], half-maximal inhibition (IC50) required 1.34 µM.
With `N=C(N)N1CCN(c2ccc(Cl)cc2)CC1`, the half-maximal inhibitory concentration (IC50) in experiment [1] is above 100 µM.
Take `NC(=O)c1cccnc1N1CCNCC1`: the half-maximal inhibitory concentration (IC50) in experiment [3] was 102 µM; in experiment [1] it was 90.1 µM. Besides, the affinity in experiment [4], expressed as Kd, was 141 µM.
With `C[C@@H]1C[C@H]2[C@@H]3CCC4=CC(=O)C=C[C@]4(C)[C@@]3(F)[C@@H](O)C[C@]2(C)[C@@]1(O)C(=O)CO` [DEXAMETHASONE], the Activity in the experiment with Mus musculus [5] was 60%.
